Data reported in patent publication US10618903B2, “Heteroaryl substituted aminopyridine compounds” (BRISTOL-MYERS SQUIBB COMPANY, priority 2015, dated 2020).

Columns and labels:
[1] = biological target: IRAK4 (Homo sapiens (Human), UniProt Q9NWZ3); experiment: IRAK4 Inhibition Assay; type: biochemical; conditions: ATP 500 μM; IRAK4 0.6 nM
Method: The assays were performed in U-bottom 384-well plates. The final assay volume was 30 μL prepared from 15 μL additions of enzyme and substrates (fluoresceinated peptide and ATP) and test compounds in assay buffer (20 mM HEPES pH 7.2, 10 mM MgCl2, 0.015% Brij 35 and 4 mM DTT). The reaction was initiated by the combination of IRAK4 with substrates and test compounds. The reaction mixture was incubated at room temperature for 60 min. and terminated by adding 45 μL of 35 mM EDTA to each sample. The reaction mixture was analyzed on the Caliper LABCHIP® 3000 (Caliper, Hopkinton, Mass.) by electrophoretic separation of the fluorescent substrate and phosphorylated product. Inhibition data were calculated by comparison to no enzyme control reactions for 100% inhibition and vehicle-only reactions for 0% inhibition. The final concentrations of reagents in the assays are ATP, 500 μM; FL-IPTSPITTTYFFFKKK peptide 1.5 μM; IRAK4, 0.6 nM; and DMSO, 1.6%.

[2] = test system: IL-6 levels in human whole blood stimulated with a TLR2 agonist; experiment: IRAK4 Whole Blood Assay (lipoteichoic acid/TLR2-stimulated IL-6); type: cell-based; conditions: lipoteichoic acid 10 μg/mL, IL-6 readout
Method: Human whole blood containing the anti-coagulant ACD-A was plated in 384-well plate (25 μL/well) and incubated with compounds for 60 minutes at 37° C. in a 5% CO2 incubator. The blood was stimulated with a TLR2 agonist, 10 μg/mL final concentration of lipoteichoic acid (Invivogen, San Diego, Calif.) in 25 μL RPMI (Gibco) for 5 hours in a 5% CO2 incubator. At the end of the incubation, plates were centrifuged at 2300 rpm for 5 minutes. Supernatants were harvested and analyzed for IL-6 levels by Flow Cytometry beads assay (BD Biosciences, San Jose, Calif.).

IRAK4, sequence (Q9NWZ3 whole entry): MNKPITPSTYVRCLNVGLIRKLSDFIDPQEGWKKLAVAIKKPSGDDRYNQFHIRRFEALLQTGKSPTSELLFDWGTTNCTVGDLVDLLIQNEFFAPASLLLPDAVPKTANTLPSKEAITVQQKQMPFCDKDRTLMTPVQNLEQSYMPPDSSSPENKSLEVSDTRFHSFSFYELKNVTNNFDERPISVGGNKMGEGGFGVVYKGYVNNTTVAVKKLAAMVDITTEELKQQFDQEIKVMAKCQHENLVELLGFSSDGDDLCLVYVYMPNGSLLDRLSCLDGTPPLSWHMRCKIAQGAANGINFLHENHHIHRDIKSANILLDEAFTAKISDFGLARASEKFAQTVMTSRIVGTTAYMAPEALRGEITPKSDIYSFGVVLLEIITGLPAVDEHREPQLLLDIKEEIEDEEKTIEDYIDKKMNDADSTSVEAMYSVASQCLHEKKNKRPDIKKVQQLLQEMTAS

Work on CC(C)(O)[C@H](F)CNC(=O)c1cnc(-c2cnn3cc(Cl)cnc23)cc1NC1CCCOC1 (single isomer, unassigned) [Example 3] yielded an IC50 [1] of 0.006 µM and an EC50 ([2]; Homo sapiens) of 0.38 µM.
In the case of CC(C)(O)[C@H](F)CNC(=O)c1cnc(-c2cnn3cc(Cl)cnc23)cc1NC1CCCOC1 (single isomer, unassigned) [Example 4], the IC50 [1] is reported as 0.013 µM and the EC50 [2] is reported as 0.68 µM.
Compound COC1CC(Nc2cc(-c3cnn4cc(Cl)cnc34)ncc2C(=O)NC[C@@H](F)C(C)(C)O)CC1(F)F (single isomer, unassigned) [Example 13] has an IC50 [1] of 0.007 µM and an EC50 ([2]; Homo sapiens) of 4.45 µM.
CC(C)(O)[C@H](F)CNC(=O)c1cnc(-c2cnn3cc(C#N)cnc23)cc1Nc1ccc(C(N)=O)cc1 [Example 112, (R)-4-((4-carbamoylphenyl)amino)-6-(6-cyanopyrazolo[1,5-a]pyrimidin-3-yl)-N-(2-fluoro-3-hydroxy-3-methylbutyl)nicotinamide] gave an EC50 ([2]; Homo sapiens) of 0.82 µM.
With CC(C)Nc1cc(-c2cnc3ccc(NCC(C)(C)O)nn23)ncc1C(=O)NC[C@@H](F)C(C)(C)O [Example 151, (R)—N-(2-fluoro-3-hydroxy-3-methylbutyl)-6-(6-((2-hydroxy-2-methylpropyl)amino)imidazo[1,2-b]pyridazin-3-yl)-4-(isopropylamino)nicotinamide] the IC50 [1] was 0.011 µM.
Compound CC(C)Nc1cc(-c2cnc3ccc(N4CC[C@@H](O)C4)nn23)ncc1C(=O)NC[C@@H](F)C(C)(C)O [Example 152, N—((R)-2-fluoro-3-hydroxy-3-methylbutyl)-6-(6-((R)-3-hydroxypyrrolidin-1-yl)imidazo[1,2-b]pyridazin-3-yl)-4-(isopropylamino)nicotinamide] has an IC50 [1] of 0.029 µM.
With COc1cnn2c(-c3cc(NC(C)C)c(C(=O)NC[C@@H](F)C(C)(C)O)cn3)cnc2c1 [Example 153, (R)—N-(2-fluoro-3-hydroxy-3-methylbutyl)-4-(isopropylamino)-6-(7-methoxyimidazo[1,2-b]pyridazin-3-yl)nicotinamide] the IC50 [1] was 0.013 µM.
In the case of COc1cnn2c(-c3cc(NC4COC4)c(C(=O)NC[C@@H](F)C(C)(C)O)cn3)cnc2c1 [Example 154, (R)—N-(2-fluoro-3-hydroxy-3-methylbutyl)-6-(7-methoxyimidazo[1,2-b]pyridazin-3-yl)-4-(oxetan-3-ylamino)nicotinamide], the IC50 [1] is reported as 0.016 µM.
With CC(C)Nc1cc(-c2cnc(-c3cccc(C#N)c3)o2)ncc1C(=O)NC[C@@H](F)C(C)(C)O [Example 155, (R)-6-(2-(3-cyanophenyl)oxazol-5-yl)-N-(2-fluoro-3-hydroxy-3-methylbutyl)-4-(isopropylamino)nicotinamide] the IC50 [1] was 0.055 µM.
CC(C)(C)Nc1cc(-c2cnc3cc(C#N)cnn23)ncc1C(=O)NC[C@@H](F)C(C)(C)O [Example 187, (R)-4-(tert-butylamino)-6-(7-cyanoimidazo[1,2-b]pyridazin-3-yl)-N-(2-fluoro-3-hydroxy-3-methylbutyl)nicotinamide] gave an EC50 ([2]; Homo sapiens) of 0.2 µM.
For COC(C)(C)[C@H]1CC[C@H](NC(=O)c2cnc(-c3cnc4cc(Cl)cnn34)cc2NC2COC2)CC1 [Example 191, 6-(7-chloroimidazo[1,2-b]pyridazin-3-yl)-N-((1r,4r)-4-(2-methoxypropan-2-yl)cyclohexyl)-4-(oxetan-3-ylamino)nicotinamide], the EC50 ([2]; Homo sapiens) was 0.63 µM.
CC(C)(O)[C@H](F)CNC(=O)c1cnc(-c2cnn3cc(C#N)cnc23)cc1Nc1ccn(CC(F)F)c1 [Example 225, (R)-6-(6-cyanopyrazolo[1,5-a]pyrimidin-3-yl)-4-((1-(2,2-difluoroethyl)-1H-pyrrol-3-yl)amino)-N-(2-fluoro-3-hydroxy-3-methylbutyl)nicotinamide] was tested, and the EC50 ([2]; Homo sapiens) was 0.08 µM.
Compound CC(C)(O)[C@H](F)CNC(=O)c1cnc(-c2cnn3cc(Cl)cnc23)cc1Nc1ccn(CC(F)F)c1 [Example 228, (R)-6-(6-chloropyrazolo[1,5-a]pyrimidin-3-yl)-4-((1-(2,2-difluoroethyl)-1H-pyrrol-3-yl)amino)-N-(2-fluoro-3-hydroxy-3-methylbutyl)nicotinamide] has an EC50 ([2]; Homo sapiens) of 0.25 µM.
